Reference: ChEMBL document CHEMBL5576063, “Design, concise synthesis and evaluation of novel amide-based combretastatin A-4 analogues as potent tubulin inhibitors” (Bioorg Med Chem Lett, 2024)
Activity calls are given as the source filed them. The rule behind the calls is not given here.

Assays:
A549 [1] = test: Antiproliferative activity against human A549 cells assessed as inhibition of cell growth by MTT assay; assay type: functional, cell-based
Tubulin (Homo sapiens) [2] = target: T1, Tubulin (Homo sapiens) (UniProt P68371+Q9H4B7+P0DPH7+P68366+Q13509+Q71U36+P04350+Q3ZCM7+P07437+P68363+Q9BQE3+Q6PEY2+Q13885+Q9BVA1+Q9BUF5); test: Inhibition of tubulin polymerization (unknown origin) at 10 uM measured upto 30 mins by spectrophotometry analysis; assay type: protein-complex assay
A549 [3] = test: Induction of apoptosis in human A549 cells assessed as necrotic cells at 4.8 uM measured after 24 hrs by annexin-V/PI staining based flow cytometry analysis (reference value: 0.48%); assay type: functional
HT-29 = test: Antiproliferative activity against human HT-29 cells assessed as inhibition of cell growth by MTT assay; assay type: functional, cell-based
A549 [4] = test: Induction of apoptosis in human A549 cells assessed as viable cells at 1.2 uM measured after 24 hrs by annexin-V/PI staining based flow cytometry analysis (reference value: 97.4%); assay type: functional; settings: read-out: Activity
A549 [5] = test: Induction of apoptosis in human A549 cells assessed as viable cells at 4.8 uM measured after 24 hrs by annexin-V/PI staining based flow cytometry analysis (reference value: 97.4%); assay type: functional; settings: read-out: Activity
Tubulin (Homo sapiens) [6] = target: T1, Tubulin (Homo sapiens); test: Inhibition of tubulin polymerization (unknown origin) at 6 uM measured upto 30 mins by spectrophotometry analysis; assay type: protein-complex assay
A549 [7] = test: Induction of apoptosis in human A549 cells assessed as late apoptotic cells at 2.4 uM measured after 24 hrs by annexin-V/PI staining based flow cytometry analysis (reference value: 0.25%); assay type: functional
A549 [8] = test: Induction of apoptosis in human A549 cells assessed as early apoptotic cells at 2.4 uM measured after 24 hrs by annexin-V/PI staining based flow cytometry analysis (reference value: 1.87%); assay type: functional
Tubulin (Homo sapiens) [9] = target: T1, Tubulin (Homo sapiens); test: Inhibition of tubulin polymerization (unknown origin) at 10 uM measured upto 30 mins by spectrophotometry based analysis relative to control; assay type: protein-complex assay
[10] = Antiproliferative activity against HEK293 cells assessed as inhibition of cell growth by MTT assay; assay type: toxicity, cell-based; settings: human
A549 [11] = test: Induction of cell cycle arrest in human A549 cells assessed as accumulation of cells at G2/M phase at 1.2 uM measured after 24 hrs by PI staining based flow cytometry analysis (reference value: 21.00%); assay type: functional
Tubulin = test: Inhibition of tubulin polymerization (unknown origin) measured upto 30 mins by spectrophotometry based analysis; assay type: protein-complex assay, Homo sapiens
A549 [12] = test: Induction of apoptosis in human A549 cells assessed as late apoptotic cells at 1.2 uM measured after 24 hrs by annexin-V/PI staining based flow cytometry analysis (reference value: 0.25%); assay type: functional
A549 [13] = test: Induction of apoptosis in human A549 cells assessed as early apoptotic cells at 1.2 uM measured after 24 hrs by annexin-V/PI staining based flow cytometry analysis (reference value: 1.87%); assay type: functional
A549 [14] = test: Induction of cell cycle arrest in human A549 cells assessed as accumulation of cells at G2/M phase measured after 24 hrs by PI staining based flow cytometry analysis; assay type: functional; settings: dose 1.2-4.8 µM
A549 [15] = test: Induction of apoptosis in human A549 cells assessed as viable cells at 2.4 uM measured after 24 hrs by annexin-V/PI staining based flow cytometry analysis (reference value: 97.4%); assay type: functional; settings: read-out: Activity
A549 [16] = test: Induction of apoptosis in human A549 cells assessed as late apoptotic cells at 4.8 uM measured after 24 hrs by annexin-V/PI staining based flow cytometry analysis (reference value: 0.25%); assay type: functional
A549 [17] = test: Induction of cell cycle arrest in human A549 cells assessed as accumulation of cells at G0/G1 phase at 4.8 uM measured after 24 hrs by PI staining based flow cytometry analysis (reference value: 55.88%); assay type: functional
A549 [18] = test: Induction of cell cycle arrest in human A549 cells assessed as accumulation of cells at G0/G1 phase at 1.2 uM measured after 24 hrs by PI staining based flow cytometry analysis (reference value: 55.88%); assay type: functional
A549 [19] = test: Induction of apoptosis in human A549 cells assessed as necrotic cells at 1.2 uM measured after 24 hrs by annexin-V/PI staining based flow cytometry analysis (reference value: 0.48%); assay type: functional
HeLa = test: Antiproliferative activity against human HeLa cells assessed as inhibition of cell growth by MTT assay; assay type: functional, cell-based
A549 [20] = test: Induction of apoptosis in human A549 cells assessed as early apoptotic cells at 4.8 uM measured after 24 hrs by annexin-V/PI staining based flow cytometry analysis (reference value: 1.87%); assay type: functional
HCT-116 = test: Antiproliferative activity against human HCT-116 cells assessed as inhibition of cell growth by MTT assay; assay type: functional, cell-based
A549 [21] = test: Induction of cell cycle arrest in human A549 cells assessed as accumulation of cells at G0/G1 phase at 2.4 uM measured after 24 hrs by PI staining based flow cytometry analysis (reference value: 55.88%); assay type: functional
A549 [22] = test: Induction of cell cycle arrest in human A549 cells assessed as accumulation of cells at S phase at 4.8 uM measured after 24 hrs by PI staining based flow cytometry analysis (reference value: 23.17%); assay type: functional
A549 [23] = test: Induction of cell cycle arrest in human A549 cells assessed as accumulation of cells at S phase at 1.2 uM measured after 24 hrs by PI staining based flow cytometry analysis (reference value: 23.17%); assay type: functional
A549 [24] = test: Induction of apoptosis in human A549 cells assessed as necrotic cells at 2.4 uM measured after 24 hrs by annexin-V/PI staining based flow cytometry analysis (reference value: 0.48%); assay type: functional
A549 [25] = test: Induction of cell cycle arrest in human A549 cells assessed as accumulation of cells at G2/M phase at 2.4 uM measured after 24 hrs by PI staining based flow cytometry analysis (reference value: 21.00%); assay type: functional
A549 [26] = test: Induction of cell cycle arrest in human A549 cells assessed as accumulation of cells at G2/M phase at 4.8 uM measured after 24 hrs by PI staining based flow cytometry analysis (reference value: 21.00%); assay type: functional
A549 [27] = test: Induction of apoptosis in human A549 cells assessed measured after 24 hrs by annexin-V/PI staining based flow cytometry analysis; assay type: functional, cell-based; settings: dose 1.2-4.8 µM
A549 [28] = test: Induction of cell cycle arrest in human A549 cells assessed as accumulation of cells at S phase at 2.4 uM measured after 24 hrs by PI staining based flow cytometry analysis (reference value: 23.17%); assay type: functional

COc1ccc(/C=C(/C(=O)Nc2ccc(N3CCN(C)CC3)cc2)c2cc(OC)c(OC)c(OC)c2)cc1OC(C)=O
IC50 (A549 [1]): > 50 µM

COc1ccc(/C=C(/C(=O)NC2CC2)c2cc(OC)c(OC)c(OC)c2)cc1OC(C)=O
IC50 (A549 [1]): > 50 µM

CC(=O)O[C@H]1C(=O)[C@@]2(C)[C@H]([C@H](OC(=O)c3ccccc3)[C@]3(O)C[C@H](OC(=O)[C@H](O)[C@@H](NC(=O)c4ccccc4)c4ccccc4)C(C)=C1C3(C)C)[C@]1(OC(C)=O)CO[C@@H]1C[C@@H]2O
inhibition (Tubulin (Homo sapiens) [2]): inactive

COc1ccc(/C=C(/C(=O)NC2CCCC2)c2cc(OC)c(OC)c(OC)c2)cc1O
IC50 (A549 [1]): > 50 µM

COc1ccc(/C=C(/C(=O)Nc2ccc(C(C)C)cc2)c2cc(OC)c(OC)c(OC)c2)cc1O
IC50 (A549 [1]): 43.4 µM

COc1ccc(/C=C(/C(=O)Nc2ccc(N3CCN(C)CC3)cc2)c2cc(OC)c(OC)c(OC)c2)cc1O
IC50 (A549 [1]): > 50 µM

COc1ccc(/C=C(/C(=O)Nc2ccc(Cl)cc2)c2cc(OC)c(OC)c(OC)c2)cc1O
IC50 (A549 [1]): > 50 µM

COc1ccc(NC(=O)/C(=C/c2ccc(OC)c(O)c2)c2cc(OC)c(OC)c(OC)c2)cc1
IC50 (A549 [1]): > 50 µM

COc1ccc(/C=C(/C(=O)Nc2ccccc2)c2cc(OC)c(OC)c(OC)c2)cc1O
Activity (A549 [3]): 2.96%
IC50 (HT-29): 5.33 µM
viability at 1.2 µM (A549 [4]): 96.4%
viability at 4.8 µM (A549 [5]): 86.9%
inhibition (Tubulin (Homo sapiens) [6]): Active
Activity (A549 [7]): 3.33%
Activity (A549 [8]): 1.87%
inhibition (Tubulin (Homo sapiens) [9]): 62%
IC50 [10]: > 100 µM
Activity (A549 [11]): 28.81%
IC50 (Tubulin): 6.9 µM
Activity (A549 [12]): 1.35%
Activity (A549 [13]): 1.98%
Activity (A549 [14]): Dose-Dependent Effect
viability at 2.4 µM (A549 [15]): 93.1%
Activity (A549 [16]): 5.15%
Activity (A549 [17]): 53.73%
Activity (A549 [18]): 53.47%
Activity (A549 [19]): 0.27%
IC50 (HeLa): 10.3 µM
Activity (A549 [20]): 4.97%
IC50 (HCT-116): 6.28 µM
Activity (A549 [21]): 40.69%
Activity (A549 [22]): 13.9%
Activity (A549 [23]): 22.72%
Activity (A549 [24]): 1.65%
Activity (A549 [25]): 46.63%
Activity (A549 [26]): 32.36%
Activity (A549 [27]): Dose-Dependent Effect
Activity (A549 [28]): 32.71%
IC50 (A549 [1]): 2.42 µM

CCN1CCN(c2ccc(NC(=O)/C(=C/c3ccc(OC)c(O)c3)c3cc(OC)c(OC)c(OC)c3)cc2)CC1
IC50 (A549 [1]): 45.7 µM

COc1ccc(/C=C(/C(=O)Nc2ccccc2)c2cc(OC)c(OC)c(OC)c2)cc1OC(C)=O
IC50 (A549 [1]): 3.91 µM

COc1ccc(/C=C(/C(=O)Nc2ccc(C)cc2)c2cc(OC)c(OC)c(OC)c2)cc1OC(C)=O
IC50 (A549 [1]): 3.99 µM

COc1ccc(/C=C(/C(=O)Nc2ccc(C)cc2)c2cc(OC)c(OC)c(OC)c2)cc1O
IC50 (A549 [1]): 24.5 µM

COc1ccc(/C=C(/C(=O)NCc2ccccc2)c2cc(OC)c(OC)c(OC)c2)cc1OC(C)=O
IC50 (A549 [1]): 33.8 µM

COc1ccc(/C=C(/C(=O)Nc2cc(OC)c(OC)c(OC)c2)c2cc(OC)c(OC)c(OC)c2)cc1O
IC50 (A549 [1]): > 50 µM

CCN1CCN(c2ccc(NC(=O)/C(=C/c3ccc(OC)c(OC(C)=O)c3)c3cc(OC)c(OC)c(OC)c3)cc2)CC1
IC50 (A549 [1]): 4.85 µM

COc1ccc(/C=C(/C(=O)NCc2ccccc2)c2cc(OC)c(OC)c(OC)c2)cc1O
IC50 (A549 [1]): > 50 µM

CCc1ccc(NC(=O)/C(=C/c2ccc(OC)c(O)c2)c2cc(OC)c(OC)c(OC)c2)cc1
IC50 (A549 [1]): > 50 µM

COc1ccc(/C=C(/C(=O)NC2CC2)c2cc(OC)c(OC)c(OC)c2)cc1O
IC50 (A549 [1]): > 50 µM

COc1ccc(NC(=O)/C(=C/c2ccc(OC)c(OC(C)=O)c2)c2cc(OC)c(OC)c(OC)c2)cc1
IC50 (A549 [1]): 3.01 µM

COc1ccc(/C=C(/C(=O)Nc2ccc(Cl)cc2)c2cc(OC)c(OC)c(OC)c2)cc1OC(C)=O
IC50 (HT-29): 30.2 µM
inhibition (Tubulin (Homo sapiens) [9]): 3%
IC50 [10]: > 100 µM
IC50 (HeLa): 17.3 µM
IC50 (HCT-116): 20.5 µM
IC50 (A549 [1]): 2.64 µM

COc1ccc(/C=C(/C(=O)Nc2cc(OC)c(OC)c(OC)c2)c2cc(OC)c(OC)c(OC)c2)cc1OC(C)=O
IC50 (HT-29): 4.71 µM
inhibition (Tubulin (Homo sapiens) [9]): 34%
IC50 [10]: > 100 µM
IC50 (HeLa): 9.79 µM
IC50 (HCT-116): 5.49 µM
IC50 (A549 [1]): 0.73 µM

CCc1ccc(NC(=O)/C(=C/c2ccc(OC)c(OC(C)=O)c2)c2cc(OC)c(OC)c(OC)c2)cc1
IC50 (A549 [1]): 3.53 µM

COc1ccc(/C=C(/C(=O)Nc2ccc(C(C)C)cc2)c2cc(OC)c(OC)c(OC)c2)cc1OC(C)=O
IC50 (HT-29): 18.1 µM
inhibition (Tubulin (Homo sapiens) [9]): 3%
IC50 [10]: > 100 µM
IC50 (HeLa): 23.4 µM
IC50 (HCT-116): 28.6 µM
IC50 (A549 [1]): 1.08 µM

COc1ccc(/C=C\c2cc(OC)c(OC)c(OC)c2)cc1O [COMBRETASTATIN A4]
IC50 (HT-29): 1.65 µM
IC50 [10]: 48.1 µM
IC50 (HeLa): 0.08 µM
IC50 (HCT-116): 4.77 µM
IC50 (A549 [1]): 0.11 µM

COc1ccc(/C=C(/C(=O)NC2CCCC2)c2cc(OC)c(OC)c(OC)c2)cc1OC(C)=O
IC50 (A549 [1]): > 50 µM
